Assay results: patent US20240325437A1, “METHODS AND COMPOSITIONS FOR USE IN IMPROVING ADAPTIVE IMMUNITY IN THE ELDERLY POPULATION” (Technion Research & Development Foundation Limited, priority 2023, published 2024)
Entries after “also recorded” stand apart in the source; their conditions may differ. Like-named read-outs stand apart in the source and are kept apart here.

Tests used:
[1] = test system: CD3+ T cells derived from young mice; assay: Viability of young T cells cultured with heme or spleen extract (Zombie, flow cytometry); assay type: cell-based, mouse; settings: for viability of T cells: with and without agent
Excerpt: (§1) T cell isolation and culture. T cells were harvested from mice spleens and/or lymph nodes (inguinal, axillary, brachial, mandibular, and jejunal), and purified by magnetic separation. Depending on the specific experiment, either bulk CD3^+ T cells or bulk CD3^+CD4^+ T cells or pure naïve (CD3^+CD4^+CD62L^+ CD441^lo CD25^−) T cells were purified using commercially available kits (StemCell, 19765A, 19852A, 19851A), following the manufacturer instructions. The protocol for isolating pure naïve T cells from aged mice was modified, as additional antibodies were added to the initial antibody cocktail to overcome changes in T cell population composition in the aged. Specifically, biotinylated anti-mouse/human CD44 (BioLegend, IM7), and biotinylated anti-mouse CD25 (miltenyi 130-123-860, REA568), were added to the company's premade antibody cocktail for negative selection of lymphocytes. Furthermore, the present inventors performed a step of positive selection of CD62L^+ naïve T cells, using anti-mouse CD62L microbeads (miltenyi, 130-049-701) and magnetic columns (miltenyi, 130-042-201). Primary T cells were cultured at 37° C. and 5% CO2 in RPMI media, supplemented with: 10% FBS, 10 mM Hepes, penicillin/streptomycin, and 0.035% beta-mercaptoethanol. For activation, cells were cultured on plates pre-coated (overnight at 4° C.) with anti-CD3 (2 μg/mL; clone 145-2C11, BioXCell) and anti-CD28 (4 μg/mL, clone 37.51; BioXCell). Resting cells were supplemented with 5 ng/ml recombinant murine IL-7 (PEPROTECH, 217-17). In some experiments, cell cultures were supplemented with hemin chloride (cayman, 16487), ammonium iron (III) citrate (thermos scientific, A11199.30), BSA (Sigma-Aldrich, A9647), and spleen extract, at different concentrations, as indicated in relevant experiments.
Collection of a interstitial fluid-enriched fraction (referred to as spleen extract; SE). Spleens from young or aged mice were harvested, and gently dissociated ontop of a […] cell strainer, in 5 mL PBS or RPMI, 5 min centrifugation at 1350 RPM to separate the cellular pellet from the fluidic fraction, enriched with interstitial components.
(§2) Flow cytometry. […] Intracellular ferrous iron was measured using FerroOrange (Dojindo F374).

aged T cells [2] = assay: Proliferation of aged T cells activated ex vivo (CellTrace Violet); assay type: cell-based, mouse; settings: for aged T cells proliferation: aged T cells activated ex vivo with and without agent
Excerpt: as §1, §2

[3] = test system: CD3+ T cells derived from young mice; assay: Proliferation of young T cells stimulated ex vivo with anti-CD3/anti-CD28 (cell trace violet); assay type: cell-based, mouse
Excerpt: as §1, §2

aged T cells [4] = assay: Survival of aged T cells ex vivo; assay type: cell-based, mouse; settings: aged T cells (not shown)
Protocol: (§3) Flow cytometry. For cell-surface staining, cultured T cells or freshly isolated T cells were resuspended in a separation buffer (PBS containing 2% FBS and 2 mM EDTA) and incubated for 20 min, on ice, with an antibody mix, supplemented purified anti-mouse CD16/32 (Biolegend, clone 93). For intracellular staining, True-Nuclear™ Transcription Factor Buffer Set (Biolegend, 424401) was used, following the manufacturer's protocol. […] Cell viability was assessed by Zombie violet or Zombie NIR™ Fixable Viability Kits (423114, 423105, biolegend). Cell proliferation was assessed by cell trace violet proliferation kit (C34557, Invitrogen). Lysosomal activity was determined using a lysosomal intracellular activity assay kit (ab234622) according to the manufacturer's instructions. Intracellular ferrous iron was measured using FerroOrange (Dojindo F374). Cells were incubated with […] of FerroOrange in HBSS at 37° C. for 40 minutes, and analyzed by flow cytometry. For Lysotracker staining, cells were incubated with 62.5 nM of lysotracker deep red (Invitrogen L12492) in HBSS at 37° C. for 40 minutes and analyzed by flow cytometry. All data were collected on the Attune NxT Flow Cytometer (Thermo Fisher) and analyzed using FlowJo (BD).

aged T cells [5] = assay: Labile iron (FerroOrange) in aged T cells; assay type: cell-based, mouse
Protocol: as §2
(§4) Functional assays and intracellular ferrous iron staining. Intracellular ferrous iron was measured using FerroOrange (Dojindo, F374). […] All assays were analyzed by flow cytometry.

[6] = test system: CD4+ and CD8+ T cells derived from the aged spleen; assay: Ferroptosis resistance to RSL3 of T cells from aged spleen after adoptive transfer; assay type: cell-based, mouse; settings: CD4+ vs CD8+ T cells from aged spleen, TdTomato+ and TdTomato−
Excerpt: Adoptive T cell transfer. Young T cells were isolated from spleens of young OTII td-tomato transgenic mice (8-12 weeks-old) by magnetic isolation (StemCell), as described above. […] Two weeks following cell transfer, mice were euthanized and spleen and lymph nodes (inguinal, axillary, brachial, mandibular, and jejunal) were extracted for further analysis.
The present inventors hypothesized that ferroptosis resistance was accomplished by maintaining low cellular iron levels. To test this, FerroOrange was employed, a fluorescent probe that interacts with cellular ferrous ion (Fe^+2), to measure changes in labile iron in T cells following activation. In young T cells, labile iron pools increased as early as 9 hr post-activation and continued rising until 72 hrs (FIG. 5A). Iron levels varied across different populations as Ferro-Orange fluorescence intensity was higher in CD8^+ compared to CD4^+ T cells, pre- and post-activation (FIG. 5B). […] A major pathway for increasing cellular iron is the uptake of transferrin-bound iron, mediated by the transferrin receptor (TFR1), also known as CD71. […] In agreement with the observed differences in labile iron, CD8^+ T cells expressed higher levels of CD71 compared to CD4^+ T cells (FIG. 5F). […]

[7] = test system: CD3+ T cells derived from the spleen of young and aged mice; assay: Ferroptosis tolerance: viability of young and aged T cells treated with RSL; assay type: cell-based, mouse; settings: increasing doses of RSL, 48 hrs, young vs aged T cells; listed as RSL
Excerpt: (§5) T cell isolation and culture. T cells were harvested from mice spleens and/or lymph nodes (inguinal, axillary, brachial, mandibular, and jejunal), and purified by magnetic separation. Depending on the specific experiment, either bulk CD3^+ T cells or bulk CD3^+CD4^+ T cells or pure naïve (CD3^+CD4^+CD62L^+ CD441^lo CD25^−) T cells were purified using commercially available kits (StemCell, 19765A, 19852A, 19851A), following the manufacturer instructions. The protocol for isolating pure naïve T cells from aged mice was modified, as additional antibodies were added to the initial antibody cocktail to overcome changes in T cell population composition in the aged. Specifically, biotinylated anti-mouse/human CD44 (BioLegend, IM7), and biotinylated anti-mouse CD25 (miltenyi 130-123-860, REA568), were added to the company's premade antibody cocktail for negative selection of lymphocytes. Furthermore, the present inventors performed a step of positive selection of CD62L^+ naïve T cells, using anti-mouse CD62L microbeads (miltenyi, 130-049-701) and magnetic columns (miltenyi, 130-042-201). […]
as §2
Albumin is the most abundant heme binding protein in the serum. […] The present inventors hypothesized that the unique protein signature measured in aged T cells (FIG. 2H) allows them to survive this hostile microenvironment. […]

aged T cells [8] = test system: aged T cells
Protocol: as §3

[9] = test system: OVA-specific OTI and OTII T cells in aged recipients; settings: aged mice, OVA/Alum i.p., FAC i.v. on days 1 and 3, spleen on day 5
Protocol: Control mice were injected with saline. […] Control mice received saline.

[10] = test system: T cells response to vaccination; settings: cited from earlier work
aged T cells [11] = settings: 24 hr post-activation
Protocol: Functional assays and intracellular ferrous iron staining. Intracellular ferrous iron was measured using FerroOrange (Dojindo, F374). Following extracellular staining, cells were incubated with 1 μM of FerroOrange in HBSS at 37° C. for 30 minutes in a 5% CO2 incubator, and immediately taken for analysis. For Mitochondrial ferrous iron measurement, cells were incubated with 5 μM of Mito-FerroGreen (Dojindo, M489) in HBSS at 37° C. for 30 minutes in a 5% CO2 incubator, washed twice. […] All assays were analyzed by flow cytometry.

young T cells [12] = assay: Cellular ROS (DCFDA) in young T cells; assay type: cell-based, mouse; settings: T cells exposed to heme, 48 hr
Protocol: as §4

[13] = test system: T cells derived from young mice; assay: Immunophenotyping of young T cells after ex vivo incubation with heme; assay type: cell-based, mouse; settings: young T cells incubated with heme, without TCR-mediated stimulation
Excerpt: as §5, with “130-042-201). Primary T cells were cultured at 37° C. and 5% CO2 in RPMI media, supplemented with: 10% FBS, 10 mM Hepes, penicillin/streptomycin, and 0.035% beta-mercaptoethanol.” for “130-042-201).”
as §2

T cells [14] = assay: Lysosomal intracellular activity assay; assay type: cell-based, mouse; settings: T cells activated in the presence of heme
young T cells [15] = assay: Lipid peroxidation (BODIPY 581/591 C11) in young T cells; assay type: cell-based, mouse; settings: T cells exposed to heme
T cells [16] = assay: Lysosomal mass (lysotracker; flow cytometry and fluorescent microscopy); assay type: cell-based, mouse; settings: T cells +/- activation +/- heme
Protocol: as §2
Fluorescent microscopy. Cells were stained simultaneously with lysotracker deep red and FerroOrange in HBSS as described above, and imaged using Leica DMI8 inverted fluorescent microscope.

resting young T cells = assay: FOXO1 levels in resting young T cells by flow cytometry; assay type: cell-based, mouse; settings: resting young T cells incubated ex vivo for 4-48 hr
Protocol: as §2
Lysosomal dysfunction results in accumulation of late endosomes, also referred to as multi vesicular bodies (MVBs), that are identified by expression of CD63. […] FOXO1 regulates expression of TFEB, the master regulator of lysosomal biogenesis^17. Moreover, FOXO1 expression is critical for maintaining T cell quiescence, and its deficiency induces T cell senescence^18. The present inventors hypothesized that the microenvironment in the aged spleen suppressed FOXO1 expression, thus inducing T cell priming (FIG. 7E-G) and dysregulates lysosomal biogenesis and activity. To test this hypothesis, FOXO1 levels were quantified in resting young T cells that were incubated ex vivo with either heme or SE.

T cells [17] = assay: CD63 expression on T cells by flow cytometry; assay type: cell-based, mouse; settings: T cells cultured with heme at different concentrations
Protocol: as §2

[18] = test system: CD3+ T cells derived from young mice; assay: Expression of ferritin, HO-1 and CD39 in young T cells by flow cytometry; assay type: cell-based, mouse; settings: young T cells exposed to heme
Excerpt: as §1, §2

## CC(=O)N(O)CCCCCNC(=O)CCC(=O)N(O)CCCCCNC(=O)CCC(=O)N(O)CCCCCN [DFO]
[1]; young T cells cultured with spleen extract plus DFO
  cell viability: partially rescued cell viability

## CC(=O)N[C@@H](CS)C(=O)O [NAC, N-acetyl cysteine]
[1]; young T cells activated 48 hr in the presence of SE
  viability of T cells: improved cell viability
[1]; young T cells activated 48 hr in the presence of heme
  viability of T cells: improved cell viability
Aged T cells [2]
  aged T cells proliferation: neither BSA nor NAC improved
[3]; young T cells activated 48 hr in the presence of SE, with and without agent
  proliferation: improved
[3]; young T cells activated 48 hr in the presence of heme, with and without agent
  proliferation: improved
Aged T cells [4]
  aged T cells survival: neither BSA nor NAC improved

## C=C[C@H]1C[N@@]2CC[C@H]1C[C@H]2[C@H](O)c1ccnc2ccc(OC)cc12 [Quinine, quinine]
Aged T cells [5]; aged CD3+ T cells cultured with quinine (15 uM)
  labile iron pools (Ferro-Orange): increases labile iron pools
Aged T cells [2]
  aged T cells proliferation: rescued their proliferative capacity

## COC(=O)c1ccc([C@@H]2c3[nH]c4ccccc4c3C[C@@H](C(=O)OC)N2C(=O)CCl)cc1 [RSL3]
[6]
  resistance to RSL3-induced ferroptosis: more resistant to RSL3-induced ferroptosis
[7]
  cell viability after RSL (ferroptosis tolerance): aged T cells survived even high levels of the drug; also recorded: aged T cells are significantly more tolerant to ferroptosis than young T cells

## N-methyl protoporphyrin IX
Aged T cells [2]; aged T cells supplemented with FAC plus FECH inhibitor
  proliferation: prevented the alleviating effect on proliferation

## ferric ammonium citrate [FAC]
Aged T cells [5]; aged T cells activated ex vivo in the presence of FAC
  labile iron pools (FerroOrange): increased labile iron pools
Aged T cells [8]; FAC-supplemented aged CD8+ T cells (not shown)
  CD71 expression: the shift in CD71 expression was smaller
Aged T cells [8]; FAC-supplemented aged T cells
  CD71 expression: downregulation of CD71
[9]
  proliferation of antigen specific CD4+ T cells (OTII): improved proliferation
  proliferation of antigen specific CD8+ T cells (OTI): not affected
Aged T cells [2]
  aged T cells proliferation: significant improvement in proliferative capacity
[10]; hepcidin-treated mice, in vivo administration of FAC
  T cells response to vaccination: rescued
Aged T cells [11]
  mitochondrial iron pools: replenished mitochondrial iron pools

## hemin chloride [heme]
Young T cells [12]
  increase in cellular ROS: ~2 fold
[13]
  T cell differentiation / naïve T cell pool: sufficient to induce T cell differentiation and deplete the naïve T cell pool
T cells [14]
  lysosomal activity: suppressed
[1]; resting young CD3+ T cells with IL-7, heme for 48 hr
  cell viability: significantly reduced cell viability, in a dose-dependent manner
[1]; resting young CD3+ T cells with IL-7, heme for 48 hr, listed as Heme
  cell viability: reduces cell viability
Young T cells [15]
  lipid peroxidation: large induction in lipid peroxidation
T cells [16]
  lysosomal mass: downregulated lysosomal mass
Resting young T cells
  FOXO1 levels: dropped within 4 hr and continued to drop during the 48 hr of incubation
[3]; young T cells activated 48 hr, exposure to heme or SE alone
  proliferation: completely blocked
T cells [17]
  CD63 expression: induced CD63 expression, in a dose-dependent manner
[18]
  CD39 expression: also induced; also recorded: sufficient to induce CD39
  expression of HO-1: sufficient to induce expression
  expression of ferritin: sufficient to induce expression
[18]; listed as Heme
  CD39 expression: induces expression
  expression of HO-1: induces expression
  expression of ferritin: induces expression

## hepcidin
[10]; mice treated with hepcidin
  T cells response to vaccination: diminished

## holo-transferrin: iron saturated transferrin
Aged T cells [2]
  aged T cells proliferation: significant improvement in proliferative capacity
